Assay [1] deals with KS Y-1 induced tumors. The experiment in a line: KS Y-1 tumors induced in immunodeficient mice. The following applies: compared to β-hCG peptides 45-57 and 109-119.
Assay [2] has as its system KS Y-1 or KS-SLK cells. As to the kind of experiment: KS clonogenic assay in methylcellulose. Format: cell-based, human. How it is done: Briefly, the KS Y-1 cells were obtained from mononuclear cells isolated from pleural effusion of an AIDS patient with KS involving the lungs. After the depletion of T lymphocytes, monocytes/macrophages and fibroblasts by the cytotoxicity method, using monoclonal antibodies against CD2, CD3, CD4, CD8, CD10 and CD14 membrane antigens and baby rabbit complement, the cells were cultured in the absence of exogenous growth factors to select for transformed cells.

Assay [3] has as its system HIV. As to the kind of experiment: HIV assays (anti-viral effects).
Assay [4] deals with KS tumors and cells. As to the kind of experiment: Overall anti-KS activity of hCG preparations and peptides in vitro and in vivo. The following applies: for anti-KS effects: in vitro and in vivo animal model data.

For “α-hCG peptide 88-92: α-hCG peptide of amino acids 88-92 (YYHKS; UniProt P01215 112-116, looked up, fragment)”, the “anti-KS activity of other peptides” value in assay [1] is “inactive”. Moreover, the “inhibition in clonogenic assays” value in assay [2] is recorded as “little or no inhibition”.

On to “β-hCG peptide 6-40: β-hCG peptide 6-40, forms part of the β-core (RPRCRPINATLAVEKEGCPVCITVNTTICAGYCPT; UniProt P0DN86 26-60, looked up, fragment)”, for which the “anti-KS activity of other peptides” value in assay [1] is “slight activity”.

For “β-hCG peptide 7-40: β-hCG peptide of amino acids 7-40 (PRCRPINATLAVEKEGCPVCITVNTTICAGYCPT; UniProt P0DN86 27-60, looked up, fragment)”, the “inhibition in clonogenic assays” value in assay [2] was “little or no inhibition”.

For “β-hCG peptide 34-49: β-hCG peptide of amino acids 34-49 (CAGYCPTMTRVLQGVL; UniProt P0DN86 54-69, looked up, fragment)”, the “anti-KS activity of other peptides” value in assay [1] is “inactive”. In assay [2], the “inhibition in clonogenic assays” value is recorded as “little or no inhibition”.

Consider “β-hCG peptide 38-57: β-hCG peptide of amino acids 38-57, overlaps satellin A1 (CPTMTRVLQGVLPALPQVVC; UniProt P0DN86 58-77, looked up, fragment)”, for which the “anti-KS activity of other peptides” value in assay [1] is given as “slight activity”. For the same molecule, the “inhibition in clonogenic assays” value in assay [2] is listed as “little or no inhibition”.

Turning to “β-hCG peptide 55-90: β-hCG peptide 55-90, forms part of the β-core (VVCNYRDVRFESIRLPGCPRGVNPVVSYAVALSCQC; UniProt P0DN86 75-110, looked up, fragment)”, in assay [1], the “anti-KS activity of other peptides” value is on record as “slight activity”.

In the case of “β-hCG peptide 57-93: β-hCG peptide of amino acids 57-93 (CNYRDVRFESIRLPGCPRGVNPVVSYAVALSCQCALC; UniProt P0DN86 77-113, looked up, fragment)”, the “anti-KS activity of other peptides” value in assay [1] was “inactive”. Also, the “inhibition in clonogenic assays” value in assay [2] is recorded as “little or no inhibition”.

Take “β-hCG peptide 74-95: β-hCG peptide of amino acids 74-95 (RGVNPVVSYAVALSCQCALCRR; UniProt P0DN86 94-115, looked up, fragment)”: the “anti-KS activity of other peptides” value in assay [1] was “inactive”. Besides, the “inhibition in clonogenic assays” value in assay [2] is “little or no inhibition”.

On to “β-hCG peptide 93-100: β-hCG peptide of amino acids 93-100 (CRRSTTDC; UniProt P0DN86 113-120, looked up, fragment)”, for which the “anti-KS activity of other peptides” value in assay [1] was “inactive”.

For “β-hCG peptide 100-110: β-hCG peptide of amino acids 100-110 (CGGPKDHPLTC; UniProt P0DN86 120-130, looked up, fragment)”, in assay [1], the “anti-KS activity of other peptides” value is “inactive”. In addition, the “inhibition in clonogenic assays” value in assay [2] is “little or no inhibition”.

“β-hCG peptide 109-119: synthetic peptide of amino acid numbers 109-119 of the beta subunit of hCG (TCDDPRFQDSS)”: the anti-viral effects entry in assay [3] is on record as “strongest anti-viral effects”. Also, the “anti-tumor (anti-KS) effects in clonogenic assays” value in assay [2] (50 nmoles/ml, 2 KS neoplastic cell lines, 10 days) was “strongest anti-tumor effects”. Moreover, in assay [4], the “activities of native hCG preparations (anti-KS, anti-viral, pro-hematopoietic) mimicked or retained” value is recorded as “mimicked” and the anti-KS effects entry was “have anti-KS effects”.

B1: pure β-chain: pure β-chain of hCG (protein, UniProt P0DN86 21-165, looked up)
Choriogonadotropin subunit …: SKEPLRPRCRPINATLAVEKEGCPVCITVNTTICAGYCPTMTRVLQGVLPALPQVVCNYRDVRFESIRLPGCPRGVNPVVSYAVALSCQCALCRRSTTDCGGPKDHPLTCDDPRFQDSSSSKAPPPSLPSPSRLPGPSDTPILPQ
In the case of B1, the “anti-KS effect in clonogenic assays” value in assay [2] (pure subunit chains) is on record as “no anti-KS effect”.

B2: partially purified β-hCG: native partially purified whole β-chain of hCG (protein, UniProt P0DN86 21-165, looked up)
Choriogonadotropin subunit …: B1 Choriogonadotropin subunit …
As to B2, the figures for the anti-KS effects entry in assay [4] and in assay [4] (listed as native partially purified whole β-chain) were “have anti-KS effects” and “considerable anti-KS activity”, respectively.

B3: recombinant β-hCG (purified): purified recombinant β-hCG (protein, UniProt P0DN86 21-165, looked up)
Choriogonadotropin subunit …: B1 Choriogonadotropin subunit …
For B3, the anti-KS effects result in assay [4] was “little or no effect”.

(Values after patent US5997871A (priority 1996, dated 1999).)
